Read-outs that look alike come from different tables or passages of the source. One block for each compound: values may come before it.
Target: T1, MCR-1 (Homo sapiens, UniProt Q01726)
T1 construct: expressed in transfected cells; host or cells: HEK 293
Test: Melanocortin receptor binding assay, competition with 125I-HP 467, HEK 293 cells expressing hMCR-1
Conditions: for % Disp. MC-1 10 μM: displacement of 125I-HP 467 at 10 μM isoquinoline compound; for % Disp. of 125I-HP 467 (first of duplicate) / % Disp. of 125I-HP 467 (second of duplicate): 10 μM isoquinoline compound; for % Disp. of 125I-HP 467 (first of duplicate): HEK 293 cells expressing MCR-1, duplicate 1; for % Disp. of 125I-HP 467 (second of duplicate): HEK 293 cells expressing MCR-1, duplicate 2; for IC50: read-out: MC-1 IC50
Outline: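 Test compounds compete on intact HEK 293 cells carrying hMCR-1 (2×10^4 per tube) or hMCR-4 (4×10^3 per tube), suspended in PBS, 10% calf serum, 1 mM CaCl2.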

[1] = competition with 125I-HP 467, HEK 293 cells expressing MCR-1
[2] = inhibition of binding of 125I-HP 467, HEK 293 cells expressing MCR-1

T1 sequence (Q01726 whole entry): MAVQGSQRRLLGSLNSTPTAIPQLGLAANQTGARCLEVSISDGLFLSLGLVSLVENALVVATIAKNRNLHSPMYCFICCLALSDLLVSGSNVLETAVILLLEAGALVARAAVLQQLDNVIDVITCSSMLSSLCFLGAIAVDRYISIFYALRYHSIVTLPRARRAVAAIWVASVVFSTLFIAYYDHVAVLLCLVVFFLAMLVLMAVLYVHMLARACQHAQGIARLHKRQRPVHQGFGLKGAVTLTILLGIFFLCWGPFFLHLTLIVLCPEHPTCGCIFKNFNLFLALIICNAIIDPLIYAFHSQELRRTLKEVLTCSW

Structure (SMILES): CC(C)c1ccc(C2C(CNC3CCCCC3)c3ccccc3CN2CCN)cc1 (stereo not drawn) [TRG 2405-67]
% Disp. MC-1 10 μM (first of duplicate): 54%
% Disp. MC-1 10 μM (second of duplicate): 51.3%

Structure (SMILES): NCCN1Cc2ccccc2C(CNC2CCCCC2)C1c1ccnc2ccccc12 (stereo not drawn) [TRG 2405-75]
% Disp. MC-1 10 μM (first of duplicate): 38.9%
% Disp. MC-1 10 μM (second of duplicate): 17.6%

Structure (SMILES): CCCCNc1ccc(C2C(CN)c3ccccc3CN2CCCCC(CN)NCc2ccc(Cl)cc2)cc1 (mixture of isomers) [TRG 2411-108]
IC50 [1]: 160 nM

Structure (SMILES): CNC(CN)CCCCN1Cc2ccccc2C(CNC2CCCCC2)C1c1cccc(Oc2ccc(Cl)c(Cl)c2)c1 (mixture of isomers) [TRG 2405-213]
% Disp. of 125I-HP 467 (first of duplicate): 80%
% Disp. of 125I-HP 467 (second of duplicate): 78.1%

Structure (SMILES): CCNc1ccc(C2C(CN)c3ccccc3CN2CCCC(CN)NC)cc1 (stereo not drawn) [TRG 2411-175]
IC50 [2]: 290 nM

Structure (SMILES): CNC(CN)CCCCN1Cc2ccccc2C(CNC2CCCCC2)C1c1ncc[nH]1 (stereo not drawn) [TRG 2405-198]
% Disp. of 125I-HP 467 (first of duplicate): 65.4%
% Disp. of 125I-HP 467 (second of duplicate): 26.4%

Structure (SMILES): CCNc1ccc(C2C(CNC3CCCCC3)c3ccccc3CN2CCCC(CN)NCc2ccc(Cl)cc2)cc1 (stereo not drawn) [TRG 2411-170]
IC50 [2]: 130 nM

Structure (SMILES): CCCCCNc1ccc(C2C(CNCCc3ccccc3)c3ccccc3CN2CCCCC(CN)NCCc2ccccc2)cc1 (stereo not drawn) [TRG 2412-2]
IC50 [2]: 470 nM

Structure (SMILES): CCCCNc1ccc(C2C(CNC3CCCCC3)c3ccccc3CN2CCCCC(CN)NCc2ccccc2)cc1 (stereo not drawn) [TRG 2411-93]
IC50 [1]: 130 nM

Structure (SMILES): CNC(CN)CCCCN1Cc2ccccc2C(CNC2CCCCC2)C1c1ccc(F)c(Br)c1 (stereo not drawn) [TRG 2405-216]
% Disp. of 125I-HP 467 (first of duplicate): 78.9%
% Disp. of 125I-HP 467 (second of duplicate): 67.9%

Structure (SMILES): CNC(CN)CN1Cc2ccccc2C(CNC2CCCCC2)C1c1ccc(N(C)C)cc1 (stereo not drawn) [TRG 2405-145]
% Disp. MC-1 10 μM (first of duplicate): 41.2%
% Disp. MC-1 10 μM (second of duplicate): 49.7%

Structure (SMILES): CCCCOc1ccc(C2C(CNCCc3ccccc3)c3ccccc3CN2CCCC(CN)NCCc2ccccc2)cc1 (stereo not drawn) [TRG 2412-26]
IC50 [2]: 200 nM

Structure (SMILES): CN(C)c1ccc(C2C(CNC3CCCCC3)c3ccccc3CN2CCN)cc1 (stereo not drawn) [TRG 2405-55]
% Disp. MC-1 10 μM (first of duplicate): 32.6%
% Disp. MC-1 10 μM (second of duplicate): 38.1%

Structure (SMILES): CNCCNC(CN)CCCN1Cc2ccccc2C(CN)C1c1ccc(-c2ccccc2)cc1 (stereo not drawn) [TRG 2411-140]
IC50 [1]: 1360 nM

The next lines start with results.

% Disp. of 125I-HP 467 (first of duplicate): 24.9%
% Disp. of 125I-HP 467 (second of duplicate): 29.1%
Structure (SMILES): CNC(CN)CCCCN1Cc2ccccc2C(CNC2CCCCC2)C1c1ccncc1 (stereo not drawn) [TRG 2405-254]

% Disp. of 125I-HP 467 (first of duplicate): 52.9%
% Disp. of 125I-HP 467 (second of duplicate): 37.7%
Structure (SMILES): CNC(CN)CCCCN1Cc2ccccc2C(CNC2CCCCC2)C1c1ccc(OCCCN(C)C)cc1 (stereo not drawn) [TRG 2405-234]

% Disp. MC-1 10 μM (first of duplicate): 37.3%
% Disp. MC-1 10 μM (second of duplicate): 34.6%
Structure (SMILES): CNC(CN)CN1Cc2ccccc2C(CNC2CCCCC2)C1c1ccnc2ccccc12 (stereo not drawn) [TRG 2405-165]

% Disp. MC-1 10 μM (first of duplicate): 5.5%
% Disp. MC-1 10 μM (second of duplicate): 0%
Structure (SMILES): COc1ccc(C2C(CNC3CCCCC3)c3ccccc3CN2CCN)cc1S(=O)(=O)O (stereo not drawn) [TRG 2405-88]

% Disp. MC-1 10 μM (first of duplicate): 0%
% Disp. MC-1 10 μM (second of duplicate): 26.1%
Structure (SMILES): NCCN1Cc2ccccc2C(CNC2CCCCC2)C1c1cccc2c1OCO2 (stereo not drawn) [TRG 2405-8]

IC50 [1]: 760 nM
Structure (SMILES): CNC(CNC(CN)CCCCN1Cc2ccccc2C(CNCCc2ccccc2)C1c1ccc(-c2ccccc2)cc1)Cc1ccccc1 (stereo not drawn) [TRG 2411-8]

IC50 [1]: 370 nM
Structure (SMILES): CCCCNc1ccc(C2C(CNCCc3ccccc3)c3ccccc3CN2CCCCC(CN)NCCc2ccc(OC)cc2)cc1 (mixture of isomers) [TRG 2411-79]

IC50 [1]: 80 nM
Structure (SMILES): CCCCNC(CN)CCCCN1Cc2ccccc2C(CNC2CCCCC2)C1c1ccc(NCC)cc1 (stereo not drawn) [TRG 2411-50]
effectiveness as MC receptor ligand (binding to MC receptors, Table 1): particularly effective MC receptor ligands

IC50 [2]: 110 nM
Structure (SMILES): CCNc1ccc(C2C(CN)c3ccccc3CN2CCCC(CN)NCCc2ccc(OC)cc2)cc1 (stereo not drawn) [TRG 2411-181]

% Disp. MC-1 10 μM (first of duplicate): 53.6%
% Disp. MC-1 10 μM (second of duplicate): 53.6%
Structure (SMILES): NCCN1Cc2ccccc2C(CNC2CCCCC2)C1c1cccc2ccccc12 (stereo not drawn) [TRG 2405-5]

% Disp. MC-1 10 μM (first of duplicate): 45.6%
% Disp. MC-1 10 μM (second of duplicate): 51.1%
Structure (SMILES): CNC(CN)CN1Cc2ccccc2C(CNC2CCCCC2)C1c1cccc2ccccc12 (stereo not drawn) [TRG 2405-95]

% Disp. of 125I-HP 467 (first of duplicate): 69.8%
% Disp. of 125I-HP 467 (second of duplicate): 69.4%
Structure (SMILES): CNC(CN)CCCCN1Cc2ccccc2C(CNC2CCCCC2)C1c1cccc(OC)c1 (stereo not drawn) [TRG 2405-225]

% Disp. MC-1 10 μM (first of duplicate): 32.1%
% Disp. MC-1 10 μM (second of duplicate): 54.3%
Structure (SMILES): NCCN1Cc2ccccc2C(CNC2CCCCC2)C1c1ccc(Br)cc1 (stereo not drawn) [TRG 2405-62]

IC50 [2]: 150 nM
Structure (SMILES): CCCCNc1ccc(C2C(CNC3CCCCC3)c3ccccc3CN2CCCC(CN)NCC)cc1 (stereo not drawn) [TRG 2411-204]

IC50 [1]: 220 nM
Structure (SMILES): CCNc1ccc(C2C(CNC3CCCCC3)c3ccccc3CN2CCCCC(CN)NCC)cc1 (stereo not drawn) [TRG 2411-49]

% Disp. MC-1 10 μM (first of duplicate): 15%
% Disp. MC-1 10 μM (second of duplicate): 16.2%
Structure (SMILES): CNC(CN)CN1Cc2ccccc2C(CNC2CCCCC2)C1c1cccnc1 (stereo not drawn) [TRG 2405-141]

— patent US6608082B1, “Treatment of erectile dysfunction using isoquinoline compound melanocortin receptor ligands” (Lion Bioscience AG, priority 1998, dated 2003)
